The test addresses MALT-1 (Isoform1) (Homo sapiens (Human), UniProt Q9UDY8). Put plainly: Biochemical fluorescent assay of MALT-1 (Isoform1) enzyme inhibition. The note with it: recombinant MALT-1 (Isoform1); for Percent Inhibition (@ 1 μM) / inhibition at 1 µM: compound at 1 μM; for IC50: 50 μM AC-LRSR-MAC substrate, 240 min; for inhibition at 1 µM: read-out: Percent Inhibition (@ 1 μM). How it is done: The potency of compounds to inhibit MALT-1 (Isoform1) enzyme was tested in a Fluorescent assay using recombinant MALT-1 (Isoform1, aa-840) generated in-house. The assay buffer was 50 mM HEPES (pH 7.5), 100 mM NaCl, 10 mM DTT, 1 mM EDTA, 0.9 M sodium citrate, 0.01% CHAPS. 1.5 nM of MALT-1 enzyme was incubated with various concentrations of test compounds ([…]) (1% DMSO) in the presence of buffer for 30 minutes at 30° C. The protease reaction was initiated by adding 50 μM of AC-LRSR-MAC (Peptide International, USA) substrate and incubated for 240 min. After 240 min incubation, fluorescence emission of the samples at 460 nm was measured at an excitation of 355 nm. The percent inhibition was calculated using the following formula: […]. IC50 values were determined by fitting the dose-response data to sigmoidal curve fitting equation using Graph pad prism software VS.

Broadly, the IC50 is the point on the concentration scale where inhibition reaches its midpoint. As usually defined, the inhibition is the relative decrease from the control value, in per cent.

MALT-1 (Isoform1), sequence (Q9UDY8 whole entry, canonical isoform): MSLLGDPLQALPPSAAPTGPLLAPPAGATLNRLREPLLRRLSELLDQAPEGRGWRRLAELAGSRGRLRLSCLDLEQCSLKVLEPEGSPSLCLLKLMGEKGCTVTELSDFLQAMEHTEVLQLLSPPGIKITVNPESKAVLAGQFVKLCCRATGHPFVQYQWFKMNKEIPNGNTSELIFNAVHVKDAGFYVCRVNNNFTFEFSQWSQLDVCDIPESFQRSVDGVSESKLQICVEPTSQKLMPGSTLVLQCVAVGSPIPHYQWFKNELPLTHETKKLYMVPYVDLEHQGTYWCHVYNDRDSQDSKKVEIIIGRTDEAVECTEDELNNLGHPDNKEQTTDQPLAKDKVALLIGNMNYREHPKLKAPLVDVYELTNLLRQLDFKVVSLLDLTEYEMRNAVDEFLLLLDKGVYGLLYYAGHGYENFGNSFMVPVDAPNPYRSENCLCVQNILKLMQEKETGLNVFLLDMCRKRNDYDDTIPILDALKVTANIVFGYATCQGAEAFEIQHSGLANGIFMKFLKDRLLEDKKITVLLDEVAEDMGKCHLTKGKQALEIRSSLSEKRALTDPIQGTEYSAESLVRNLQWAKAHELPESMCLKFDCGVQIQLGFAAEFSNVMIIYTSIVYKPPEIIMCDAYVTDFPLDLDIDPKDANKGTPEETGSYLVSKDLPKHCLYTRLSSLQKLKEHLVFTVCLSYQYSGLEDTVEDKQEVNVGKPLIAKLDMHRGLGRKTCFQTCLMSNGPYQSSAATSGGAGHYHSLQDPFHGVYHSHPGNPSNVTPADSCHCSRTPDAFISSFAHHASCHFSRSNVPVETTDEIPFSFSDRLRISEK

As to `CCC(OC)c1c(NC(=O)Nc2cc(F)c3nc(C)nn3c2)cnc2cc(Cl)nn12` (single isomer, unassigned) [Example 33b, 1-(2-chloro-7-(1-methoxypropyl)pyrazolo[1,5-a]pyrimidin-6-yl)-3-(8-fluoro-2-methyl-[1,2,4]triazolo[1,5-a]pyridin-6-yl)urea], the “Percent Inhibition (@ 1 μM)” value amounted to 96% and the IC50 is 51 to 250 nM.
For the compound `CO[C@@H](C)c1c(NC(=O)Nc2cn3nc(C)nc3c(Br)c2C)cnc2cc(Cl)nn12` [Example 19], the inhibition at 1 µM amounted to 17% and the IC50 is greater than 250 nM.
For `COCc1nc2c(F)cc(NC(=O)Nc3cnc4cc(Cl)nn4c3[C@H](C)OC)cn2n1` [Example 17], in that order: 82% and less than 50 nM.
Turning to `COC(c1c(NC(=O)Nc2cc(F)c3nc(C)nn3c2)cnc2cc(Cl)nn12)C1CC1` (single isomer, unassigned) [Example 32b, 1-(2-chloro-7-(cyclopropyl(methoxy)methyl)pyrazolo[1,5-a]pyrimidin-6-yl)-3-(8-fluoro-2-methyl-[1,2,4]triazolo[1,5-a]pyridin-6-yl)urea], the “Percent Inhibition (@ 1 μM)” value came to 99% and the half-maximal inhibitory concentration (IC50) is less than 50 nM.
Regarding `COC(C)c1c(NC(=O)Nc2cc(Cl)c3ncnn3c2)cnc(C)c1Br` (centres unmarked) [Example 34b, 1-(5-bromo-4-(1-methoxyethyl)-6-methylpyridin-3-yl)-3-(8-chloro-[1,2,4]triazolo[1,5-a]pyridin-6-yl)urea], the inhibition at 1 µM is 33%.
As for `Cc1nc2c(F)cc(NC(=O)Nc3cnc4cc(Cl)nn4c3C3CC3)cn2n1` [Example 15], the inhibition at 1 µM came out at 79% and the half-maximal inhibitory concentration (IC50) fell in the range of 51 to 250 nM.
For `COC(c1c(NC(=O)Nc2cc(F)c3nc(C)nn3c2)cnc2cc(Cl)nn12)C(C)C` (racemic) [Example 31, 1-(2-chloro-7-(1-methoxy-2-methylpropyl)pyrazolo[1,5-a]pyrimidin-6-yl)-3-(8-fluoro-2-methyl-[1,2,4]triazolo[1,5-a]pyridin-6-yl)urea] the same measures were 100% and less than 50 nM.
With `COC(c1c(NC(=O)Nc2cc(F)c3nc(C)nn3c2)cnc2cc(Cl)nn12)C1CC1` (single isomer, unassigned) [Example 32a, 1-(2-chloro-7-(cyclopropyl(methoxy)methyl)pyrazolo[1,5-a]pyrimidin-6-yl)-3-(8-fluoro-2-methyl-[1,2,4]triazolo[1,5-a]pyridin-6-yl)urea], the inhibition at 1 µM was found to be 96% and the half-inhibitory concentration (IC50) was 51 to 250 nM.
For `COC(C)c1c(NC(=O)Nc2cc(F)c3nc(C)nn3c2)cnc(C)c1Cl` (centres unmarked) [Example 37], in that order: 48% and greater than 250 nM.
For `CO[C@@H](C)c1c(NC(=O)Nc2cc(F)c3nc(C)c(C)n3c2)cnc2cc(Cl)nn12` [Example 42], in that order: 79% and 51 to 250 nM.
For `CO[C@@H](C)c1c(NC(=O)Nc2cc(F)c3nc(CN(C)C)nn3c2)cnc2cc(Cl)nn12` [Example 29], in that order: 83% and 51 to 250 nM.
`CO[C@@H](C)c1c(NC(=O)Nc2cc(F)c3nc(C)nn3c2)cnc2cc(F)nn12` [Example 24]: the inhibition at 1 µM worked out at 80% and the IC50 fell in the range of 51 to 250 nM.
For `COC(C)c1c(NC(=O)Nc2cc(F)c3nc(C)nn3c2)cnc2sc(C)nc12` (centres unmarked) [Example 39, 1-(8-fluoro-2-methyl-[1,2,4]triazolo[1,5-a]pyridin-6-yl)-3-(7-(1-methoxyethyl)-2-methylthiazolo[5,4-b]pyridin-6-yl)urea] the same measures were 77% and greater than 250 nM.
As to `CO[C@@H](C)c1c(NC(=O)Nc2cc(F)c3nc(C(=O)N4CCCC4)nn3c2)cnc2cc(Cl)nn12` [Example 48], the inhibition at 1 µM came out at 86% and the IC50 was 51 to 250 nM.
For `CO[C@@H](C)c1c(NC(=O)Nc2cc(F)c3nc(C)nn3c2)cnc2cc(Cl)nn12` [Example 9], in that order: 92% and less than 50 nM.
For `CCC(OC)c1c(NC(=O)Nc2cc(F)c3nc(C)nn3c2)cnc2cc(Cl)nn12` (single isomer, unassigned) [Example 33a, 1-(2-chloro-7-(1-methoxypropyl)pyrazolo[1,5-a]pyrimidin-6-yl)-3-(8-fluoro-2-methyl-[1,2,4]triazolo[1,5-a]pyridin-6-yl)urea] the same measures were 99% and less than 50 nM.
For `CO[C@@H](C)c1c(NC(=O)Nc2cc(Cl)c3ncnn3c2)cnc2cc(Cl)nn12` [Example 2] the same measures were 97% and less than 50 nM.
As for `CO[C@@H](C)c1c(NC(=O)Nc2cc(C#N)c3ncnn3c2)cnc2cc(Cl)nn12` [Example 18], the inhibition at 1 µM turned out to be 98% and the half-maximal inhibitory concentration (IC50) is less than 50 nM.
As to `COC(C)c1c(NC(=O)Nc2cc(Cl)c3nc(C)nn3c2)cnc(C)c1Br` (single isomer, unassigned) [Example 35b, 1-(5-bromo-4-(1-methoxyethyl)-6-methylpyridin-3-yl)-3-(8-chloro-2-methyl-[1,2,4]triazolo[1,5-a]pyridin-6-yl)urea], the “Percent Inhibition (@ 1 μM)” value is on record as 8% and the half-maximal inhibitory concentration (IC50) is greater than 250 nM.
As to `CO[C@@H](C)c1c(NC(=O)Nc2cc(Cl)c3nccn3c2)cnc2cc(Cl)nn12` [Example 40], the inhibition at 1 µM is 96% and the 50% inhibitory concentration (IC50) lay in the range of 51 to 250 nM.
For `CO[C@@H](C)c1c(NC(=O)Nc2cc(F)c3nc(C)nn3c2)cnc2cc(Br)nn12` [Example 25] the same measures were 95% and less than 50 nM.
For `CO[C@@H](C)c1c(NC(=O)Nc2cc(Cl)c3nc(Cl)nn3c2)cnc2cc(Cl)nn12` [Example 30], in that order: 96% and less than 50 nM.
Regarding `COC(c1c(NC(=O)Nc2cc(F)c3nc(C)nn3c2)cnc2cc(Cl)nn12)C(C)C` (single isomer, unassigned) [Example 31b, 1-(2-chloro-7-(1-methoxy-2-methylpropyl)pyrazolo[1,5-a]pyrimidin-6-yl)-3-(8-fluoro-2-methyl-[1,2,4]triazolo[1,5-a]pyridin-6-yl)urea], the “Percent Inhibition (@ 1 μM)” value is on record as 99% and the IC50 is less than 50 nM.
`CO[C@@H](C)c1c(NC(=O)Nc2cc(Cl)c3nc(C(C)C)nn3c2)cnc2cc(Cl)nn12` [Example 7]: the inhibition at 1 µM was determined as 96% and the half-inhibitory concentration (IC50) was less than 50 nM.
For `Cc1nc2c(F)cc(NC(=O)Nc3cnc4cc(Cl)nn4c3C3CCCO3)cn2n1` (centres unmarked) [Example 12], in that order: 81% and 51 to 250 nM.
Consider `CO[C@@H](C)c1c(NC(=O)Nc2cc(F)c3ncnn3c2)cnc2cc(C)nn12` [Example 28], for which the inhibition at 1 µM was 84% and the half-inhibitory concentration (IC50) was greater than 250 nM.
For `CO[C@@H](C)c1c(NC(=O)Nc2cc(C(F)(F)F)c3nc(C)nn3c2)cnc2cc(Cl)nn12` [Example 11], in that order: 98% and less than 50 nM.
For `COC(C)c1c(NC(=O)Nc2cc(Cl)c3nc(C)nn3c2)cnc(C)c1Br` (racemic) [Example 35, 1-(5-bromo-4-(1-methoxyethyl)-6-methylpyridin-3-yl)-3-(8-chloro-2-methyl-[1,2,4]triazolo[1,5-a]pyridin-6-yl)urea] the same measures were 72% and greater than 250 nM.
For `Cc1nc2c(C3CC3)c(NC(=O)Nc3cc(Cl)c4ncnn4c3)cnc2s1` [Example 38, 1-(8-chloro-[1,2,4]triazolo[1,5-a]pyridin-6-yl)-3-(7-cyclopropyl-2-methylthiazolo[5,4b]pyridin-6-yl)urea] the same measures were 62% and greater than 250 nM.
As to `COCc1c(NC(=O)Nc2cc(F)c3nc(C)nn3c2)cnc2cc(Cl)nn12` [Example 22], the inhibition at 1 µM was 62% and the half-inhibitory concentration (IC50) was greater than 250 nM.
For `CO[C@@H](C)c1c(NC(=O)Nc2cc(F)c3nc(C)cn3c2)cnc2cc(Cl)nn12` [Example 41] the same measures were 69% and greater than 250 nM.
For `CO[C@@H](C)c1c(NC(=O)Nc2cc(F)c3nc(C)nn3c2)cnc2cc(C#N)nn12` [Example 47] the same measures were 54% and less than 50 nM.
As to `CO[C@@H](C)c1c(NC(=O)Nc2cc(C(F)(F)F)c3ncnn3c2)cnc2cc(Cl)nn12` [Example 4], the inhibition at 1 µM was 94% and the IC50 lay in the range of 51 to 250 nM.
For `CCC(OC)c1c(NC(=O)Nc2cc(F)c3nc(C)nn3c2)cnc2cc(Cl)nn12` (racemic) [Example 33, 1-(2-chloro-7-(1-methoxypropyl)pyrazolo[1,5-a]pyrimidin-6-yl)-3-(8-fluoro-2-methyl-[1,2,4]triazolo[1,5-a]pyridin-6-yl)urea], in that order: 98% and less than 50 nM.
For `COC(C)c1c(NC(=O)Nc2cc(F)c3nc(C)nn3c2)cnc(C)c1Br` (centres unmarked) [Example 36], in that order: 69% and greater than 250 nM.
For `CO[C@@H](C)c1c(NC(=O)Nc2cc(Cl)c3nc(C)nn3c2)cnc2cc(Cl)nn12` [Example 5], in that order: 98% and less than 50 nM.

For the origin of these results see patent US20250092066A1, “SUBSTITUTED BICYCLIC HETEROCYCLES AS MALT-1 INHIBITORS” (AURIGENE ONCOLOGY LIMITED, priority 2022, published 2025).
